Data published in patent US20250250283A1, “COMPOUND CAPABLE OF REGULATING AND CONTROLLING ACTIVITY OF 15-PGDH, AND PREPARATION METHOD THEREFOR” (SCINNOHUB PHARMACEUTICAL CO., LTD., priority 2022, published 2025).
Like-named read-outs stand apart in the source and are kept apart here.

Key:
[1] = biological target: 15-PGDH enzyme (Homo sapiens (Human), UniProt P15428); experiment: Detection of activity of 15-PGDH (enzyme inhibition, NADH fluorescence, PGF2α/β-NAD substrates); assay type: biochemical
Method: Test Example 1: Detection of Activity of 15-PGDH Kinase
• a. A solution of pH 7.5 containing 50 mM Tris-HCl, 0.01% Tween 20 was prepared with ultrapure water as a reaction buffer; • b. A 10 mM mother liquor of the compound to be tested was prepared with DMSO, and then the reaction buffer was used to dilute the mother liquor of the compound to be tested to obtain solution 1 of the compound to be tested at a concentration of 40,000 nM, and then the solution 1 of the compound to be tested was serially diluted into solutions 2-9 (or 2-12) of the compound to be tested at 9 (or 11) concentrations with a gradient difference of three-fold. 5 μL of each concentration of solutions of the compound to be tested was respectively taken and added into a 384-well plate as test wells; • c. 5 μL of the reaction buffer was added to the blank wells of the 384-well plate as positive control and blank control wells, respectively; • d. The reaction buffer was used to prepare a 15-PGDH protein solution at a concentration of 5 ng/μL, 5 μL of the 15-PGDH protein solution was taken and added to the test wells and positive control wells, and meanwhile 5 μL of the reaction buffer was added to the blank control wells, then the plate was centrifuged at 2000 rpm for 30 seconds; • e. The reaction buffer was used to prepare 5 mM β-NAD and 2 mM PGF2α, respectively, which were mixed at 1:1 by volume to obtain a substrate mixture, 10 μL of the substrate mixture was taken and added to the test wells, positive control wells and blank control wells to start the reaction; • f. The fluorescence signal value (Ex/Em=340/450) of each well was detected continuously by using a multifunctional microplate reader.
• a) Continuous fluorescence signal values were analyzed by using the “kinetic calculations-slope calculation method” in the PHERAstar Data analysis software to obtain the slope of each test well; • b) The inhibition rate % was calculated by using the following formula:
[formula] • c) Calculation of IC50 and plotting of inhibition rate-dose curves: IC50 values were calculated by fitting compound concentrations and corresponding inhibition rates with a nonlinear regression (dose response-variable slope) via using GraphPad Prism 6.0. The formula was shown below:
Y=Bottom+(Top−Bottom)/(1+10^((Log IC50−X)*HillSlope)), wherein X is a log value of a concentration of the compound, and Y is inhibition rate %.

[2] = tested on: A549 cells; experiment: Assay of intracellular PGE2 up-regulatory activity in IL-1β-stimulated A549 cells; assay type: cell-based; conditions: IL-1β induced, 8 h
Method: Test Example 2: Assay of Intracellular PGE2 Up-Regulatory Activity
a) A549 cells were inoculated in the 24-well plate, and after cell adhesion, IL-1β was added thereto for 16 h of stimulation to induce COX2 expression and PGE2 production. b) A solution of the compound to be tested was prepared with the culture medium and gradiently diluted to 3 concentrations of 10 nM, 300 nM and 10,000 nM or 7 concentrations of 0.64 nM, 3.2 nM, 16 nM, 80 nM, 400 nM, 2000 nM and 10,000 nM, and meanwhile the positive control group (only IL-1β was added to the cells for induction) and negative control group (only cells were added in the wells without any treatment) were set up. The cell supernatants were collected after 8 h of action, in which the positive control group was induced by IL-1β without treatment of the compounds, and the negative control group was neither stimulated by IL-1β, nor treated with the compounds. c) The PGE2 content of the samples was determined by Prostaglandin E2 Kit, and the fluorescence signal was detected by a multifunctional microplate reader (Ex/Em=337/620, 337/665).
a) A standard curve was plotted with the PGE2 standard in the Prostaglandin E2 Kit, and the PGE2 concentration was calculated by substituting with the fluorescence signal of the sample. b) The PGE2 up-regulation rate % was calculated by using the following formula: […]

[3] = inhibitory activity against 15-PGDH enzyme, class symbols, read-out: IC50

15-PGDH enzyme, sequence (P15428 whole entry): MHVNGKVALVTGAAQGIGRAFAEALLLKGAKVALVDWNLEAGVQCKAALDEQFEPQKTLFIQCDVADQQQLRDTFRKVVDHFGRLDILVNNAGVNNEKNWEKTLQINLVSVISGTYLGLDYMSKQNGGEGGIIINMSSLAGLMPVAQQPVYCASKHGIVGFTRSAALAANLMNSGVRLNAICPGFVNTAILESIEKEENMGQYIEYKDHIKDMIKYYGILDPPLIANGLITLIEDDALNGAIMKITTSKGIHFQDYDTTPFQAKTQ

Row | IC50 [1, 3] [nM] | SMILES | other results
1 | 10 to 25 | Nc1c(C(=O)N2CCC(F)CC2)sc2c1C1=NCCN1C(c1ccccc1)=N2 [Compound 8, (9-amino-5-phenyl-2,3-dihydroimidazo[1,2-c]thieno[3,2-e]pyrimidin-8-yl)(4-fluoropiperidin-1-yl)methanone] | 
2 | < 3 | Nc1c(C(=O)N2CCC(F)CC2)sc2nc(-c3ccccc3)n3ccnc3c12 [Example 1, (9-amino-5-phenylimidazo[1,2-c]thieno[3,2-e]pyrimidin-8-yl)(4-fluoropiperidin-1-yl)methanone] | IC50 ([1]; stated in text as bounds, read-out: IC50 value of the inhibitory activity against 15-PGDH enzyme): < 1.5 nM
3 | 3 to 10 | Nc1c(C(=O)N2CCC(F)CC2)sc2nc(-c3ccccc3)n3cc(C(F)(F)F)nc3c12 [Example 2, (9-amino-5-phenyl-2-(trifluoromethyl)imidazo[1,2-c]thieno[3,2-e]pyrimidin-8-yl)(4-fluoropiperidin-1-yl)methanone] | 
4 | < 3 | Nc1c(C(=O)N2CCCCC2)sc2nc(-c3ccncc3)n3ccnc3c12 [Example 3, (9-amino-5-(pyridin-4-yl)imidazo[1,2-c]thieno[3,2-e]pyrimidin-8-yl)(piperidin-1-yl)methanone] | 
5 | < 3 | O=C(c1sc2nc(-c3ccccc3)n3ccnc3c2c1I)N1CCCCC1 [Example 4, (9-iodo-5-phenylimidazo[1,2-c]thieno[3,2-e]pyrimidin-8-yl)(piperidin-1-yl)methanone] | 
6 | 3 to 10 | Nc1c(C(=O)N2CCCCC2)sc2nc(-c3ccccc3)n3cnnc3c12 [Example 5, (9-amino-5-phenylthieno[3,2-e][1,2,4]triazolo[4,3-c]pyrimidin-8-yl)(piperidin-1-yl)methanone] | 
7 | 10 to 25 | COc1c(C(=O)N2CCCCC2)sc2nc(-c3ccccc3)n3ccnc3c12 [Example 6, (9-methoxy-5-phenylimidazo[1,2-c]thieno[3,2-e]pyrimidin-8-yl)(piperidin-1-yl)methanone] | 
8 | < 3 | Nc1c(C(=O)N2CCCCC2)sc2nc(-c3ccccc3)n3ccnc3c12 [Example 7] | 
9 | 3 to 10 | Nc1c(C(=O)N2CCC(F)(F)CC2)sc2nc(-c3ccccc3)n3ccnc3c12 [Example 8] | PGE2 up-regulation rate ([2]; compound 16 nM): 483%; PGE2 up-regulation rate ([2]; compound 80 nM): 520%; PGE2 up-regulation rate ([2]; compound 400 nM): 770%
10 | 3 to 10 | Cc1cn2c(-c3ccccc3)nc3sc(C(=O)N4CCC(F)CC4)c(N)c3c2n1 [Example 9] | PGE2 up-regulation rate ([2]; compound 400 nM): 333%
11 | 3 to 10 | Nc1c(C(=O)N2CCCCC2)sc2nc(-c3ccccn3)n3ccnc3c12 [Example 10] | 
12 | 3 to 10 | O=C(c1sc2nc(-c3ccccc3)n3ccnc3c2c1C(F)(F)F)N1CCCCC1 [Example 12] | 
13 | 3 to 10 | Cc1c(C(=O)N2CCCCC2)sc2nc(-c3ccccc3)n3ccnc3c12 [Example 13] | 
14 | 3 to 10 | O=C(c1sc2nc(-c3ccccc3)n3ccnc3c2c1C1CC1)N1CCCCC1 [Example 14] | 
15 | < 3 | Nc1c(C(=O)N2CCCCC2)sc2nc(-c3cccnc3)n3ccnc3c12 [Example 15] | 
16 | 25 to 50 | CCN(CC)C(=O)c1sc2nc(-c3ccccc3)n3ccnc3c2c1N [Example 16] | 
17 | 25 to 50 | Nc1c(C(=O)N2CCCC2)sc2nc(-c3ccccc3)n3ccnc3c12 [Example 17] | 
18 | 10 to 25 | O=C(c1cc2c(nc(-c3ccccc3)n3ccnc23)s1)N1CCCCC1 [Example 18] | 
19 | 10 to 25 | Nc1c(C(=O)N2CCCCC2)sc2nc(-c3nccs3)n3ccnc3c12 [Example 19] | 
20 | 10 to 25 | Nc1c(C(=O)N2CCCCC2)sc2nc(-c3ccc4ccccc4n3)n3ccnc3c12 [Example 20] | 
21 | < 3 | Nc1c(C(=O)N2CCCCC2)sc2nc(-c3cnccn3)n3ccnc3c12 [Example 21] | PGE2 up-regulation rate ([2]; compound 400 nM): 321%
22 | 3 to 10 | N#Cc1c(C(=O)N2CCCCC2)sc2nc(-c3ccccc3)n3ccnc3c12 [Example 22] | 
23 | 3 to 10 | CC(C)c1c(C(=O)N2CCCCC2)sc2nc(-c3ccccc3)n3ccnc3c12 [Example 23, (9-isopropyl-5-phenylimidazo[1,2-c]thieno[3,2-e]pyrimidin-8-yl)(piperidin-1-yl)methanone] | 
24 | < 3 | CN1Cc2cc(-c3nc4sc(C(=O)N5CCCCC5)c(N)c4c4nccn34)ccc2C1=O [Example 24, 5-(9-amino-8-(piperidine-1-carbonyl)imidazo[1,2-c]thieno[3,2-e]pyrimidin-5-yl)-2-methylisoindol-1-one] | PGE2 up-regulation rate ([2]; compound 3.2 nM): 568%; PGE2 up-regulation rate ([2]; compound 16 nM): 461%; PGE2 up-regulation rate ([2]; compound 80 nM): 473%

Row | SMILES | IC50 [1, 3] [nM] | other results
25 | Cn1ccc2cc(-c3nc4sc(C(=O)N5CCCCC5)c(N)c4c4nccn34)ccc2c1=O [Example 25, 6-(9-amino-8-(piperidin-1-carbonyl)imidazo[1,2-c]thieno[3,2-e]pyrimidin-5-yl)-2-methylisoquinolin-1(2H)-one] | < 3 | PGE2 up-regulation rate ([2]; compound 3.2 nM): 513%; PGE2 up-regulation rate ([2]; compound 16 nM): 782%; PGE2 up-regulation rate ([2]; compound 80 nM): 741%
